Data on twelve molecules can be found in US11903927B2, “Combination treatment of cancer” (Scandion Oncology A/S, priority 2016, dated 2024).

Where two headings read alike, the source gives them in different places.

Data set [1] relates to human HT29 colon cancer cell line. Put plainly: HT29 colon tumour xenograft. The class given is in vivo. The conditions noted are these: mice; NS3728 80 mg/kg PO, paclitaxel 5 mg/kg IP, 5-flourouracil 30 mg/kg IP, alone or combined; dosing days 4-8, 11-15, 18-22. The procedure:
The in vivo antitumor effect of NS3728 on the human HT29 colon cancer cell line were tested as monotherapy (80 mg/kg) respectively in combination with paclitaxel (5 mg/kg) or 5-flourouracil (30 mg/kg) in two independent experimental series. NS3728 was given per oral (PO), whereas both paclitaxel and 5-flourouracil were dosed intraperitoneally (IP) by injection.
The dosing occurred in periods (days 4-8; days 11-15, days 18-22) with daily dosing of both NS3728 and cytotoxic drug, interrupted by dosing holidays.

In another data set the test system is VRAC. The conditions noted are these: read-out: IC50 as VRAC blocker; cited from earlier work.
Data set [2] concerns docetaxel resistant MCF-7 breast cancer cells. Put plainly: MTT cell viability, docetaxel resistant MCF-7. The class given is cell-based, human. Particulars: 72 hours. An excerpt: (§1) Breast cancer is a heterogenous disease and at least 6 subtypes of breast cancer have been described previously by Soerlie et al (PMID: 11553815). As a major difference, breast cancer can be divided into hormone (estrogen and progesterone) receptor positive and hormone receptor negative breast cancer. We have in our experiments included these two major subtypes. We established human breast cancer cell lines that are resistant to the chemotherapy docetaxel as described in Hansen et al 2015 (PMID: 25596703). These cell lines are MCF-7 and MDA-MB-231.
(§2) Subsequently, NS3728, docetaxel or combinations of the two drugs were added for 72 hours before cell viability was determined. […] Each data point was carried out in triplicate.

The subject of data set [3] is Docetaxel resistant MDA-MB-231 breast cancer cells. As to the kind of experiment: MTT cell viability, docetaxel resistant MDA-MB-231. The class given is cell-based, human.
Description: as §1, §2

In data set [4] the test system is fulvestrant-resistant MCF-7/LCC9 cells. Put plainly: MTT cell viability, fulvestrant resistant MCF-7/LCC9. The class given is cell-based, human. The procedure: These cell lines are MCF-7/LCC2. We also established human breast cancer cell lines that are resistant to the anti-estrogen Fulvestrant as described in Brünner et al 1997 (PMID: 9270017). MCF-7 is an estrogen and progesterone receptor positive cell line.
as §2

How the values of data set [5] were obtained:
The in vivo anti-tumor effect of NS3728 on C6 glioma cells given either as monotherapy (40 mg/kg/day) or in combination with temozolomide (Temodal, 25 or 5 mg/kg/day) was tested in two separate experiments, using either the xenograft method or the subcutaneous air sac model (SAS; see Lichtenberg, J., P. J. Hjarnaa, P. E. Kristjansen, D. Hansen & L. Binderup: The rat subcutaneous air sac mode: A quantitative assay of antiangiogenesis in induced vessels Pharmacology & Toxicology, 1999, 84, 34-40).
In the first study 5 million C6 rat glioma cells were inoculated into the flank of Fisher rats.

Another data set deals with C6 glioma cells. Put plainly: C6 glioma subcutaneous air sac (SAS) model. The class given is in vivo, rat. The conditions noted are these: 2.5 million C6 cells on air sac membrane; NS3728 40 mg/kg/day oral, temozolomide 5 mg/kg/day, alone or combined; 10 days of treatment. The method, then:
In the second study the tumour growth was retarded by inoculating only half the number of cells (2.5 million of C6 cells per animal) and making use of the subcutaneous air sac (SAS) technique. In brief, the rats were anaesthetized with CO2/O2 and 10-15 ml of air was introduced dorsally by subcutaneous injections to produce an air sac located approximately 4-5 cm behind the head. The wall of the air sac became progressively thicker with time and after 10-14 days a sufficient lining of cells with the appearance of a transparent membrane had been established. The C6 glioma cells were inoculated in the rats directly on the membrane. The treatment was started at the day of inoculation and the study was terminated on day 10 of treatment.

Data set [6] concerns SN-38 resistant HCT116 CRC cancer cells. Put plainly: MTT cell viability, SN-38 resistant HCT116. The class given is cell-based, human. The procedure: (§3) These cell lines are HCT116, HT29 and LoVo.
(§4) Each data point was carried out in triplicate.

The subject of data set [7] is oxaliplatin resistant HT29 CRC cancer cells. As to the kind of experiment: MTT cell viability, oxaliplatin resistant HT29. The class given is cell-based, human. The procedure:
as §3, §4

Data set [8] has as its system tamoxifen-resistant MCF-7/LCC2 cells. Put plainly: MTT cell viability, tamoxifen resistant MCF-7/LCC2. The class given is cell-based, human. The conditions noted are these: 40 μM NS3728, 72 hours. The method, then:
These cell lines are MCF-7/LCC2. We also established human breast cancer cell lines that are resistant to the anti-estrogen Fulvestrant as described in Brünner et al 1997 (PMID: 9270017). MCF-7 is an estrogen and progesterone receptor positive cell line. […] Subsequently, NS3728, docetaxel or combinations of the two drugs were added for 72 hours before cell viability was determined. […] Each data point was carried out in triplicate.

Data set [9] relates to SN-38 resistant HT29 CRC cancer cells.
Description: (§5) The cells were seeded in 96-well plates (10,000 cells/well) and allowed to adhere for 24 hours. Subsequently, NS3728, OXP, SN-38 or combinations of the drugs were added for 48 hours before cell viability was determined. All values are expressed in percentage of untreated cells (named: “no treatment”). “DMSO” refers to the solvent control as both NS3728 and chemotherapeutic drugs are diluted in DMSO. Thus, the DMSO (Dimethyl sulfoxide) control is included to investigate any potential effect on cell viability by the organic solvent. Each data point was carried out in triplicate.
Data set [10] relates to SN-38 resistant LoVo CRC cancer cells.
Description: as §5
The test system of another data set is cancer cells. The conditions noted are these: in vitro; cited from earlier work.
The test system of data set [11] is SN-38 resistant LoVo CRC cancer cells. Put plainly: cells. The conditions noted are these: Homo sapiens, 48 h, read-out: cell viability.
Description: as §5

Description for HCT116 parental cells: (§6) The cells were seeded in 96-well plates (10,000 cells/well) and allowed to adhere for 24 hours. Subsequently, NS3728, OXP, SN-38 or combinations of NS3728 with one of the cytotoxic drugs were added for 48 hours before cell viability was determined. All values are expressed in percentage of untreated cells (named: “no treatment”). “DMSO” refers to the solvent control as both NS3728 and chemotherapeutic drugs are diluted in DMSO. Thus, the DMSO (Dimethyl sulfoxide) control is included to investigate any potential effect on cell viability by the organic solvent. Each data point was carried out in triplicate.
Description for HT29 parental cells: as §6
Description for LoVo parental cells: as §6

With `O=c1[nH]cc(F)c(=O)[nH]1` [5-flourouracil, 5-fluorouracil], the “tumour volume growth curves” value in data set [1] was “mild (non-significant) depression of the growth curves”.
One may read the IC50 as the midpoint of a concentration-inhibition curve. Consider `O=S(=O)(O)c1cc(N=C=S)ccc1C=Cc1ccc(N=C=S)cc1S(=O)(=O)O` [DIDS], for which, in the data set with VRAC, the IC50 is 26000 nM.
With `CC(=O)O[C@@]12CO[C@@H]1C[C@H](O)[C@@]1(C)C(=O)[C@H](O)C3=C(C)[C@@H](OC(=O)[C@H](O)[C@@H](NC(=O)OC(C)(C)C)c4ccccc4)C[C@@](O)([C@@H](OC(=O)c4ccccc4)[C@H]21)C3(C)C` [Docetaxel, docetaxel, reference compound], the cell viability entry in data set [2] (65 nM Docetaxel monotherapy) is reported as “did not decrease cell viability”; in [3] (150 nM Docetaxel, 72 hours), “about 50 % of untreated controls”.
For the molecule `C[C@]12CC[C@@H]3c4ccc(O)cc4C[C@@H](CCCCCCCCC[S+]([O-])CCCC(F)(F)C(F)(F)F)[C@H]3[C@@H]1CC[C@@H]2O` (stereo partly drawn) [Fulvestrant, fulvestrant, reference compound], in [4] (1 μM Fulvestrant, 72 hours), the cell viability result is recorded as “no effect on the cell viability”.
Regarding `O=C(O)c1cc([N+](=O)[O-])ccc1NCCCc1ccccc1` [NPPB], in the data set with VRAC, the 50% inhibitory concentration (IC50) is 21000 nM.
In the case of `O=C(Nc1cccc(C(F)(F)F)c1)Nc1ccc(Br)cc1-c1nnn[nH]1` [NS3623], in the data set with VRAC, the IC50 is 1800 nM.
As a reminder, the viability is the share of living cells, or the viability signal relative to a control. Consider `O=C(Nc1cc(C(F)(F)F)cc(C(F)(F)F)c1)Nc1ccc(Br)cc1-c1nnn[nH]1` [NS3728], for which the “tumour growth rate / anti-tumor effect” value in data set [5] (5 million C6 cells, flank of Fisher rats, NS3728 40 mg/kg/day oral, temozolomide 25 mg/kg/day, alone or combined, terminated day 4 of treatment) is given as “neither NS3728 (40 mg/kg/day) nor temozolomide (25 mg/kg/day) exhibited any significant anti-tumor effect”. Besides, the “tumour growth inhibition as measured by tumour weight” value in the data set on C6 glioma cells is “significant inhibition of tumour growth”. Besides, the “tumour volume growth curves” value in data set [1] was “mild (non-significant) depression of the growth curves”. Further, the cell viability result in data set [2] (40 μM NS3728 monotherapy) is “did not decrease cell viability”; in [3] (50 μM NS3728, 72 hours), “did not decrease cell viability”; in data set [6] (30 μM NS3728, 48 hours), “about 85 % of untreated cells”; in data set [7] (20 μM NS3728, 48 hours), “about 85 % of untreated cells”; in [8], 70 % of untreated control; in data set [4] (40 μM NS3728, 72 hours) it was 60 % of untreated control. Besides, the cell viability result in the data set with HCT116 parental cells (40 μM NS3728, SN-38 experiment, 48 hours) was “about 50 % of untreated cells”; in the data set with HCT116 parental cells (50 μM NS3728, SN-38 experiment, 48 hours), “about 50 % of untreated cells”; in the data set with HCT116 parental cells (NS3728 alone in the OXP experiment (concentration not given in the sentence), 48 hours), “about 50 % of untreated cells”; in the data set with HT29 parental cells (40 μM NS3728, 48 hours) it was “about 90 % of untreated cells”; in the data set with HT29 parental cells (50 μM NS3728, 48 hours), “about 77 % of untreated cells”; in the data set with LoVo parental cells (40 μM NS3728, 48 hours), “about 45 % of untreated cells”. For the same molecule, the cell viability entry is “about 38 % of untreated cells” in the data set with LoVo parental cells (50 μM NS3728, 48 hours); “about 120 % of untreated cells” in [9] (30 μM NS3728, 48 hours (increased viability)); “no effect on cell viability” in [9] (40 μM NS3728, 48 hours); “about 85 % of untreated cells” in data set [9] (50 μM NS3728, 48 hours); “about 80 % of untreated cells” in [10] (30 μM NS3728, 48 hours); “about 50 % of untreated cells” in [10] (50 μM NS3728, 48 hours). Moreover, the half-inhibitory concentration (IC50) in the data set on VRAC is 400 nM. For the same molecule, the “inhibition of cisplatin mediated apoptosis” value in the data set with cancer cells is reported as “inhibit cisplatin mediated apoptosis”. In data set [11], the viability at 40 µM was around 57%.
With `O=C(Nc1ccc([N+](=O)[O-])cc1)Nc1ccc(Br)cc1-c1nnn[nH]1` [NS3749], the IC50 in the data set with VRAC was 1400 nM.
With `O=C1[O][Pt]2([NH][C@@H]3CCCC[C@H]3[NH]2)[O]C1=O` [OXP, oxaliplatin, reference compound], the cell viability result with HCT116 parental cells (OXP alone, 48 hours) is given as “dose-dependently decreased cell viability”.
Turning to `CCc1c2c(nc3ccc(O)cc13)-c1cc3c(c(=O)n1C2)COC(=O)[C@]3(O)CC` [SN-38, reference compound], the cell viability entry in data set [6] (4 μM SN-38, 48 hours) is on record as “almost no effect on cell viability”; in data set [7] (0.1 μM SN-38, 48 hours) it was “about 43 % of untreated cells”; in the data set on HCT116 parental cells (0.16 μM SN-38, 48 hours), “about 50 % of untreated cells”; with HT29 parental cells (0.032 μM SN-38, 48 hours) it was “about 77 % of untreated cells”; in the data set on LoVo parental cells (0.0064 μM SN-38, 48 hours) it was “about 53 % of untreated cells”; in data set [9] (0.8 μM SN-38, 48 hours) it was “about 78 % of untreated cells”. Moreover, the cell viability result in data set [10] (0.16 μM SN-38, 48 hours) is recorded as “about 78 % of untreated cells”.
As for `CC(=O)O[C@H]1C(=O)[C@@]2(C)[C@H]([C@H](OC(=O)c3ccccc3)[C@]3(O)C[C@H](OC(=O)[C@H](O)[C@@H](NC(=O)c4ccccc4)c4ccccc4)C(C)=C1C3(C)C)[C@]1(OC(C)=O)CO[C@@H]1C[C@@H]2O` [paclitaxel], the “tumour volume growth curves” value in data set [1] is reported as “mild (non-significant) depression of the growth curves”.
`Cn1nnc2c(C(N)=O)ncn2c1=O` [temozolomide, reference compound]: the “signs of toxicity (subdued behaviour, hunched appearance, loss of body weight)” value in data set [5] (all animals treated with temozolomide 25 mg/kg/day) is “Clear signs of toxicity”.
